Assay [1] has as its system class IIa HDACs. The assay is described as follows: Global quantitative proteomics, change in protein abundance in Kelly cells. In kind it is cell-based, human. Conditions: 5 hours, vs DMSO, moderated t-test. On the procedure:
(§1) Cells were washed once with phosphate-buffered saline (PBS), harvested with CellstripperTM (Corning®), washed two additional times with PBS and snap frozen in liquid nitrogen. […] Proteins were precipitated using methanol/chloroform in Donovan et al., Elife 7:e38430 (2018). The precipitated protein was resuspended in 4 M Urea, 50 mM HEPES pH 7.4, followed by dilution to 1 M urea with the addition of 200 mM EPPS, pH 8. Proteins were first digested with LysC (1:50: enzyme:protein) for 12 hours at room temperature. The LysC digestion was diluted to 0.5 M Urea with 200 mM EPPS pH 8 followed by digestion with trypsin (1:50: enzyme:protein) for 6 hours at 37° C. Tandem mass tag (TMT) reagents (Thermo Fisher Scientific) were dissolved in anhydrous acetonitrile (ACN) according to manufacturer's instructions. Anhydrous ACN was added to each peptide sample to a final concentration of 30% v/v, and labeling was induced with the addition of TMT reagent to each sample at a ratio of 1:4 peptide:TMT label. The 11-plex labeling reactions were performed for 1.5 hours at room temperature and the reaction quenched by the addition of hydroxylamine to a final concentration of 0.3% for 15 minutes at room temperature. The sample channels were combined at a 1:1 ratio, desalted using C18 solid phase extraction cartridges (Waters®) and analyzed by LC-MS for channel ratio comparison. Samples were then combined using the adjusted volumes determined in the channel ratio analysis and dried down in a speed vacuum. The combined sample was then resuspended in 1% formic acid, and acidified (pH 2-3) before being subjected to desalting with C18 SPE (Sep-Pak®-, Waters®). […] Proteome Discoverer 2.2 (Thermo Fisher Scientific) was used for .RAW file processing and controlling peptide and protein level false discovery rates, assembling proteins from peptides, and protein quantification from peptides. […] TMT reporter ion intensities were measured using a 0.003 Da window around the theoretical m/z for each reporter ion in the MS3 scan. […]

Assay [2] has as its target HDAC5 (Homo sapiens, UniProt Q9UQL6). Described as above. Format: cell-based. Conditions: 5 μM, 5-hour treatment, vs DMSO, FIG. 3. Set-up: endogenous in cells; host or cells: Kelly cells. On the procedure: (§2) Cells were washed once with phosphate-buffered saline (PBS), harvested with CellstripperTM (Corning®), washed two additional times with PBS and snap frozen in liquid nitrogen. […] Proteins were precipitated using methanol/chloroform in Donovan et al., Elife 7:e38430 (2018). The precipitated protein was resuspended in 4 M Urea, 50 mM HEPES pH 7.4, followed by dilution to 1 M urea with the addition of 200 mM EPPS, pH 8. Proteins were first digested with LysC (1:50: enzyme:protein) for 12 hours at room temperature. The LysC digestion was diluted to 0.5 M Urea with 200 mM EPPS pH 8 followed by digestion with trypsin (1:50: enzyme:protein) for 6 hours at 37° C. Tandem mass tag (TMT) reagents (Thermo Fisher Scientific) were dissolved in anhydrous acetonitrile (ACN) according to manufacturer's instructions. Anhydrous ACN was added to each peptide sample to a final concentration of 30% v/v, and labeling was induced with the addition of TMT reagent to each sample at a ratio of 1:4 peptide:TMT label. The 11-plex labeling reactions were performed for 1.5 hours at room temperature and the reaction quenched by the addition of hydroxylamine to a final concentration of 0.3% for 15 minutes at room temperature. The sample channels were combined at a 1:1 ratio, desalted using C18 solid phase extraction cartridges (Waters®) and analyzed by LC-MS for channel ratio comparison. Samples were then combined using the adjusted volumes determined in the channel ratio analysis and dried down in a speed vacuum. The combined sample was then resuspended in 1% formic acid, and acidified (pH 2-3) before being subjected to desalting with C18 SPE (Sep-Pak®-, Waters®). […] The 96 resulting fractions were then pooled in a non-contiguous manner into 24 fractions and these fractions were used for subsequent mass spectrometry analysis. Data were collected using an Orbitrap FusionTM LumosTM mass spectrometer (Thermo Fisher Scientific, San Jose, CA, USA) coupled with a […] pump (Thermo Fisher Scientific). Peptides were separated on an EasySprayTM ES803.rev2 75 μm inner diameter microcapillary column (ThermoFisher Scientific). Peptides were separated using a 190 min gradient of 6-27% acetonitrile in 1.0% formic acid with a flow rate of 300 nL/min. Each analysis used an MS3-based TMT method as described in McAlister et al., Anal. Chem. 86(14):7150-7158 (2014). The data were acquired using a mass range of m/z 340-1350, resolution 120,000, automatic gain control (AGC) target 1×10^6, maximum injection time 100 ms, dynamic exclusion of 120 seconds for the peptide measurements in the Orbitrap FusionTM LumosTM mass spectrometer. Data dependent MS2 spectra were acquired in the ion trap with a normalized collision energy (NCE) set at 55%, AGC target set to 1.5×10^5 and a maximum injection time of 150 ms. MS3 scans were acquired in the Orbitrap FusionTM LumosTM mass spectrometer with a higher energy collision dissociation (HCD) set to 55%, AGC target set to 1.5×10^5, maximum injection time of 150 ms, resolution at 50,000 and with a maximum synchronous precursor selection (SPS) precursors set to 10. Proteome Discoverer 2.2 (Thermo Fisher Scientific) was used for .RAW file processing and controlling peptide and protein level false discovery rates, assembling proteins from peptides, and protein quantification from peptides. MS/MS spectra were searched against a Swissprot human database (December 2016) with both the forward and reverse sequences. […] TMT reporter ion intensities were measured using a 0.003 Da window around the theoretical m/z for each reporter ion in the MS3 scan. […] Reporter ion intensities were normalized and scaled using in-house scripts in the R framework. Statistical analysis was carried out using the limma package within the R framework as described in Ritchie et al., Nucleic Acids Res. 43(7):e47 (2015).

Assay [3] concerns the target T1, HDAC7 (Homo sapiens, UniProt Q8WUI4).
T1 sequence (Q8WUI4 1-952): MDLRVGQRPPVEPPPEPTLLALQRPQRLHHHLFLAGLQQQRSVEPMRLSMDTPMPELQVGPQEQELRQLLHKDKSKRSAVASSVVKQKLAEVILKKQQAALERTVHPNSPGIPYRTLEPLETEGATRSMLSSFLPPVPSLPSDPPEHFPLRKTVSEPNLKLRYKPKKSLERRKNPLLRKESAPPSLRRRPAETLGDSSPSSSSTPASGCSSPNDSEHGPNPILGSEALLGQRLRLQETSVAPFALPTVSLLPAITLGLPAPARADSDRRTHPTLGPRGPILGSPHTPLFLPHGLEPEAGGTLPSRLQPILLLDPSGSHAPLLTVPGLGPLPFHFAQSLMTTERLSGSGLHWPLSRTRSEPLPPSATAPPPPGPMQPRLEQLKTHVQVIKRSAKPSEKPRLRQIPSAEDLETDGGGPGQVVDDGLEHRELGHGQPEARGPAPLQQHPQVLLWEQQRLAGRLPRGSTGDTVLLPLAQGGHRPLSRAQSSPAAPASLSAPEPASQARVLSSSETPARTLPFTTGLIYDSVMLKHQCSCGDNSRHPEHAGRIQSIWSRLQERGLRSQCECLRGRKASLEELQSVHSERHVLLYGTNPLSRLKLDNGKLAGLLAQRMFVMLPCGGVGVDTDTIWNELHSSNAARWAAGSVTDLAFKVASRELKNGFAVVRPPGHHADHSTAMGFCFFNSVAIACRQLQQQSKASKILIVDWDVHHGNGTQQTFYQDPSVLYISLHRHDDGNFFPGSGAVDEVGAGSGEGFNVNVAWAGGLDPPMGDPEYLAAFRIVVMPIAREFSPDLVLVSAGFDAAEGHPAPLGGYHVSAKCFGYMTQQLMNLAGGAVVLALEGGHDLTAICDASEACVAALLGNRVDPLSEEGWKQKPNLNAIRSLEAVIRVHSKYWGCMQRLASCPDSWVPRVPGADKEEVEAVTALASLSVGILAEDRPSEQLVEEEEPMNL
The description is as above. Conditions: 5-hour treatment, vs DMSO, FIG. 3. In kind it is cell-based. Set-up: endogenous in cells; host or cells: Kelly cells. On the procedure:
as §2

For assay [4], the system named is class IIa HDACs. In words: Global quantitative proteomics, change in protein abundance in MM.1S cells. Format: cell-based, human. The settings on record: 1 μM, 5-hour treatment, vs DMSO, moderated t-test, FIG. 5. On the procedure: as §1, with “Tandem mass tag (TMT) reagents (Thermo Fisher Scientific) were dissolved in anhydrous acetonitrile (ACN) according to manufacturer's instructions. Anhydrous ACN was added to each peptide sample to a final concentration of 30% v/v, and labeling was induced with the addition of TMT reagent to each sample at a ratio of 1:4 peptide:TMT label. The 11-plex labeling reactions were performed for 1.5 hours at room temperature and the reaction quenched by the addition of hydroxylamine to a final concentration of 0.3% for 15 minutes at room temperature.” left out, “vacuum.” for “vacuum. The combined sample was then resuspended in 1% formic acid, and acidified (pH 2-3) before being subjected to desalting with C18 SPE (Sep-Pak®-, Waters®).”

HDAC5, sequence (Q9UQL6 whole entry): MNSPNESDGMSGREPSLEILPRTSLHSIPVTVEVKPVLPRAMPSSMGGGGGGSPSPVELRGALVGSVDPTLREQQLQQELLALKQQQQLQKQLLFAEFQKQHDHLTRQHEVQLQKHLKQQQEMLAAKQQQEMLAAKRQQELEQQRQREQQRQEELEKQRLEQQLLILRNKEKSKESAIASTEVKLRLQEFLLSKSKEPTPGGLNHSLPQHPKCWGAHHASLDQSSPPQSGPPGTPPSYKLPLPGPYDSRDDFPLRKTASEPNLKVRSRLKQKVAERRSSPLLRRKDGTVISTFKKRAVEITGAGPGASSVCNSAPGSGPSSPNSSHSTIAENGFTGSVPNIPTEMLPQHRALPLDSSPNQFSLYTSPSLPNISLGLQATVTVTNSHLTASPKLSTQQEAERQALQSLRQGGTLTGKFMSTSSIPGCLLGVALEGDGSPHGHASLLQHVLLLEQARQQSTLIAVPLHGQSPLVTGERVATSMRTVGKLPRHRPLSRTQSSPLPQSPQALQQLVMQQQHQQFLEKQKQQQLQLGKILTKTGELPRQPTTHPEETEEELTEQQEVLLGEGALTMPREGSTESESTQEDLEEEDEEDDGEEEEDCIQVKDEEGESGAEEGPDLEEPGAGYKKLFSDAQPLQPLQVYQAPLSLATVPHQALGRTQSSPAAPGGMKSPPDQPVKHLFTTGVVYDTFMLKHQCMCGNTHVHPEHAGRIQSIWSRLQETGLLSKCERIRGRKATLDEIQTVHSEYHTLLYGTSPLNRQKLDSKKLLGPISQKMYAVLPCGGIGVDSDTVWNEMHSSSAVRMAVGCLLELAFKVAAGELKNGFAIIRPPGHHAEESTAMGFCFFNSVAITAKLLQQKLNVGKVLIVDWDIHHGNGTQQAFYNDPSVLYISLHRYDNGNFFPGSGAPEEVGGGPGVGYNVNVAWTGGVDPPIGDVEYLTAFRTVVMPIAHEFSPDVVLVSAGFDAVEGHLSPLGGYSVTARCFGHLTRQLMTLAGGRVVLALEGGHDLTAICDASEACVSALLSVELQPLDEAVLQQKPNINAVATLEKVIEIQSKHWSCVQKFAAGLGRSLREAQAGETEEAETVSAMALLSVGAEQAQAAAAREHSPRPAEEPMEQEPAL

For `O=C1CCC(N2C(=O)c3cccc(NCCN4CCC(CNC(=O)c5cccc(-c6noc(C(F)(F)F)n6)c5)(c5nc(-c6ccccc6)cs5)CC4)c3C2=O)C(=O)N1` (stereo not drawn) [Compound 3, N-((1-(2-((2-(2,6-dioxopiperidin-3-yl)-1,3-dioxoisoindolin-4-yl)amino)ethyl)-4-(4-phenylthiazol-2-yl)piperidin-4-yl)methyl)-3-(5-(trifluoromethyl)-1,2,4-oxadiazol-3-yl)benzamide], in assay [1] (5 μM, FIG. 4A), the “class IIa HDAC levels (relative protein abundance)” value is recorded as “significant reduction”. Further, the “protein expression level of HDAC5” value in assay [2] is “reduction in protein expression level”. The “protein expression level of HDAC7” value in assay [3] (5 μM) was “reduction in protein expression level”.

For the compound `CCN(CCOCCOCCC(=O)N[C@H](C(=O)N1C[C@H](O)C[C@H]1C(=O)N[C@@H](C)c1ccc(-c2scnc2C)cc1)C(C)(C)C)C[C@@H](C)NC(=O)c1ccc(-c2noc(C(F)(F)F)n2)cc1` [Compound 17], the “class IIa HDAC levels (relative protein abundance)” value in assay [1] (1 μM, FIG. 4B-4C) is recorded as “significant reduction”; in assay [4] it was “significant reduction”. Moreover, the “protein expression level of HDAC7” value in assay [3] (1 μM) is “selective reduction in protein expression level”.
